Results on six compounds are retold here after patent US5164390A, “6-substituted purinyl piperazine derivatives” (Ortho Pharmaceutical Corporation, priority 1991, dated 1992).

Read-outs that look alike come from different tables or passages of the source.

The subject of this test is Adult mongrel dogs. In words: Cardiotonic activity: hemodynamic and inotropic responses (MAP, HR, dP/dt, contractile force) in anesthetized dogs, iv infusion. The class given is in vivo, mongrel dog. The following applies: Canis lupus familiaris, Table 2, 1.875 mpk iv. As to the method: Adult mongrel dogs were anesthetized with sodium pentobarbital (45 mg/kg, i.p.) and artificially respired. Mean arterial pressure (MAP) was recorded from a cannulated femoral artery and drugs were infused into a cannulated femoral vein. The arterial pressure pulse was used to trigger a cardiotachometer for determination of heart rate (HR). Left ventricular pressure was measured with a Millar catheter and dP/dtmax was derived. A right thoracotomy was performed and myocardial contractile force (CF) was measured with a Walton Brodie strain gauge sutured to the right ventricle. The ventricular muscle was stretched to produce a baseline tension of 100 g. A standard dose of dopamine (10-15 ug/kg/min for 3 min) was administered to determine myocardial responsiveness to inotropic stimulation.
Test compounds were solubilized in a small volume of DMF diluted to a final concentration of 10% in physiological saline. Alternatively, where possible, a soluble hydrochloride salt was prepared by addition of 0.1N HCl diluted in physiological saline. Vehicles were tested in appropriate volumes and found to exert less than a 5% effect on contractile force. For iv studies, compounds were administered by infusion pump (one drug per animal) at rates of 0.58-2.2 mL/min in three to four stepwise increasing doses. Each dose was infused over 5 min immediately after the effect of the previous dose peaked. MAP, HR, dP/dtmax and CF responses were continuously monitored on a Beckman or Gould recorder and expressed as a percent change from pre-drug control values vs. the cumulative dose of drug administered. For these studies, n represents the number of test animals used.
Quantitation of the inotropic potency was obtained by calculation of the contractile force (CF) ED50. This was defined as the dose of compound that produced a 50% increase above baseline in myocardial contractile force. The value was obtained from three to four point dose-response curves using either graphical estimation (n<3) or linear regression analysis (n≥3). Numbers in parentheses are number of animals screened.

[1] abbreviates: read-out: CF (myocardial contractile force), percent change from pre-drug control.
Setting [2] is: read-out: HR (heart rate), percent change from pre-drug control.
[3] abbreviates: read-out: MAP (mean arterial pressure), percent change from pre-drug control.
Where [4] appears, read: read-out: dP/dt (left ventricular dP/dtmax), percent change from pre-drug control.

In the case of `Nc1nc(SCC(O)CN2CCN(C(c3ccc(F)cc3)c3ccc(F)cc3)CC2)c2nc[nH]c2n1` (stereo not drawn) [Example 25, 2-Amino-6-[1-[1-bis(4-fluorophenyl)methyl]piperazin-4-yl]-2-hydroxy-3-propanyl-thio]purine Hemihydrate], the change in vivo at 1.875 mg/kg runs as follows: under setting [1], 84%; under setting [2], 9%; under setting [3], -15%; under setting [4], 23%.

For `COC(=O)CCn1cnc2c(SCC(CN3CCN(C(c4ccc(F)cc4)c4ccc(F)cc4)CC3)OC(C)=O)ncnc21` (stereo not drawn) [Example 26, 6-[1-[1-[Bis(4-fluorophenyl)methyl]piperazin-4-yl-]-2-acetoxy-3-propanylthio]purin-9-yl-3-propanoic acid, methyl ester], the change in vivo at 1.875 mg/kg under setting [1] was 34%, the change in vivo at 1.875 mg/kg under setting [2] was -3%, the change in vivo at 1.875 mg/kg under setting [3] was -10% and the change in vivo at 1.875 mg/kg under setting [4] turned out to be 29%.

For the compound `CCN(CC(O)CN1CCN(C(c2ccc(F)cc2)c2ccc(F)cc2)CC1)c1ncnc2nc[nH]c12` (stereo not drawn) [Example 27, 6-[3-[4-[Bis(4-fluorophenyl)methyl]piperazin-1-yl]-2-hydroxypropyl-N-ethylamino]purine], the change in vivo at 1.875 mg/kg is, setting by setting: under setting [1], 10%; under setting [2], 6%; under setting [3], 3%; under setting [4], 14%.

For the compound `CN(CC(O)CN1CCN(C(c2ccc(F)cc2)c2ccc(F)cc2)CC1)c1ncnc2[nH]cnc12` (stereo not drawn) [Example 28, 6-[3-[4-[Bis(4-fluorophenyl)methyl]piperazin-1-yl]-2-hydroxypropyl-N-methylamino]purine Hemihydrate], the change in vivo at 1.875 mg/kg was 95% under setting [1], 16% under setting [2], 9% under setting [3] and 82% under setting [4].

For the compound `Cn1cnc2c(SCC(O)CN3CCN(C(c4ccc(F)cc4)c4ccc(F)cc4)CC3)ncnc21` (stereo not drawn) [Example 29, 9-Methyl-6-[1-[1-[bis(4-fluorophenyl)methyl]piperazin-4-yl]-2-hydroxy-3-propanylthio]purine Hemihydrate], the change in vivo at 1.875 mg/kg runs as follows: under setting [1], 50%; under setting [2], -2%; under setting [3], -6%; under setting [4], 11%.

With `Cc1nc(SCC(O)CN2CCN(C(c3ccc(F)cc3)c3ccc(F)cc3)CC2)c2nc[nH]c2n1` (stereo not drawn) [Example 30, 2-Methyl-6-[1-[1-[bis(4-fluorophenyl)methyl]piperazin-4-yl]-2-hydroxy-3-propanylthio]purine 3/4Hydrate], the change in vivo at 1.875 mg/kg reads like this: under setting [1], 23%; under setting [2], 1%; under setting [3], 1%; under setting [4], 17%.
